The experiment concerns HCV genotype 1b replicon in Huh 7 cells. Description: HCV replicon assay (1b_Huh-Luc/Neo-ET cell line, luciferase readout). The experiment is classed as cell-based. Particulars: Hepatitis C virus, Huh-7; HCV 1b replicon; read-out: Inhibition of HCV genotype 1b. In outline:
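Replicon level was read as luciferase signal after 72 h compound exposure, triplicate wells, starting the day after cells were plated. Cell line: 1b_Huh-Luc/Neo-ET. Values normalised to control as percent, and EC50 fitted with a variable-slope sigmoid; determinations repeated.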

Structures are written as SMILES. pEC50: −log10 of the molar value.

Take `COC(=O)N[C@@H](C)C(=O)N1CCC[C@H]1c1ncc(-c2ccc3nc(-c4ccc(-c5cnc([C@@H]6CCCN6C(=O)[C@H](NC(=O)OC)c6ccccc6)[nH]5)c(F)c4)ccc3c2)[nH]1` [compound 459]: the pEC50 was above 9.00. The same measure for `COC(=O)N[C@H](C(=O)N1CCC[C@H]1c1ncc(-c2ccc3nc(-c4ccc(-c5cnc([C@@H]6CCCN6C(=O)[C@H](NC(=O)OC)c6ccccc6)[nH]5)c(F)c4)ccc3c2)[nH]1)[C@@H](C)OC` [compound 460]: above 9.00; for `COC(=O)N[C@H](C(=O)N1CCC[C@H]1c1ncc(-c2ccc3cc(-c4ccc(-c5cnc([C@@H]6CCCN6C(=O)[C@H](NC(=O)OC)c6ccccc6)[nH]5)nn4)ccc3c2)[nH]1)C(C)C` [compound 461]: above 9.00.

As for `COC[C@H](NC(=O)OC)C(=O)N1CCC[C@H]1c1ncc(-c2ccc3cc(-c4ccc(-c5cnc([C@@H]6COCCN6C(=O)[C@@H](NC(=O)OC)c6ccccc6)[nH]5)cc4)ccc3c2)[nH]1` [compound 462], the pEC50 is above 9.00. For `COC[C@H](NC(=O)OC)C(=O)N1CCC[C@H]1c1ncc(-c2ccc(-c3ccc4cc(-c5cnc([C@@H]6CCCN6C(=O)[C@H](COC)NC(=O)OC)[nH]5)ccc4c3)cc2)[nH]1` [compound 463], the pEC50 is above 9.00. As to `COC(=O)N[C@@H](C)C(=O)N1CCC[C@H]1c1ncc(-c2ccc3cc(-c4ccc(-c5cnc([C@@H]6CCCN6C(=O)[C@H](NC(=O)OC)c6ccsc6)[nH]5)cc4)ccc3c2)[nH]1` [compound 464], the pEC50 was above 9.00. Consider `COC[C@H](NC(=O)OC)C(=O)N1CCC[C@H]1c1ncc(-c2ccc3cc(-c4ccc(-c5cnc([C@@H]6CCCN6C(=O)[C@H](NC(=O)OC)c6ccsc6)[nH]5)cc4)ccc3c2)[nH]1` [compound 465], for which the pEC50 was above 9.00.

`COC(=O)N[C@H](C(=O)N1CCC[C@H]1c1ncc(-c2ccc3cc(-c4ccc(-c5cnc([C@@H]6CCCN6C(=O)[C@H](NC(=O)OC)c6ccsc6)[nH]5)cc4)ccc3c2)[nH]1)C(C)C` [compound 466]: the pEC50 is above 9.00. Consider `COC(=O)N[C@@H](CC(C)C)C(=O)N1CCC[C@H]1c1ncc(-c2ccc3nc(-c4ccc(-c5cnc([C@@H]6CCCN6C(=O)[C@H](NC(=O)OC)c6ccccc6)[nH]5)c(F)c4)ccc3c2)[nH]1` [compound 467], for which the pEC50 is above 9.00. In the case of `COC(=O)N[C@H](C(=O)N1CCC[C@H]1c1ncc(-c2ccc3nc(-c4ccc(-c5cnc([C@@H]6CCCN6C(=O)[C@H](NC(=O)OC)c6ccccc6)[nH]5)c(F)c4)ccc3c2)[nH]1)C1CCCC1` [compound 468], the pEC50 was above 9.00. Consider `COC(=O)N[C@H](C(=O)N1CCC[C@H]1c1ncc(-c2ccc3nc(-c4ccc(-c5cnc([C@@H]6CN(C(=O)OC)CCN6C(=O)[C@@H](NC(=O)OC)C(C)C)[nH]5)cc4)ccc3c2)[nH]1)C(C)C` [compound 469], for which the pEC50 is above 9.00. With `COC(=O)N[C@H](C(=O)N1CCN(C(=O)OC)C[C@H]1c1ncc(-c2ccc(-c3ccc4cc(-c5cnc([C@@H]6CCCN6C(=O)[C@@H](NC(=O)OC)C6CCOCC6)[nH]5)ccc4n3)cc2)[nH]1)C(C)C` [compound 470], the pEC50 is above 9.00.

On to `COC(=O)N[C@H](C(=O)N1CCN(C(=O)OC)C[C@H]1c1ncc(-c2ccc(-c3ccc4cc(-c5cnc([C@@H]6CCCN6C(=O)[C@H](NC(=O)OC)c6ccccc6)[nH]5)ccc4n3)cc2)[nH]1)C(C)C` [compound 471], for which the pEC50 was above 9.00. `COC(=O)N[C@H](C(=O)N1CCN(C(=O)OC)C[C@H]1c1ncc(-c2ccc(-c3ccc4cc(-c5cnc([C@@H]6CCCN6C(=O)[C@H](NC(=O)OC6CCOCC6)c6ccccc6)[nH]5)ccc4n3)cc2)[nH]1)C(C)C` [compound 472]: the pEC50 was above 9.00. With `COC(=O)N[C@H](C(=O)N1CCC[C@H]1c1ncc(-c2ccc3nc(-c4ccc(-c5cnc([C@@H]6CCCN6C(=O)[C@H](NC(=O)OC)c6ccccc6)[nH]5)c(F)c4)ccc3c2)[nH]1)C1CCOCC1` [compound 473] the figure was above 9.00; with `COC(=O)N[C@@H](C(=O)N1CCC[C@H]1c1ncc(-c2ccc(-c3ccc4cc(-c5cnc([C@@H]6CCCN6C(=O)[C@H](NC(=O)OC6CCOCC6)c6ccccc6)[nH]5)ccc4n3)cc2F)[nH]1)c1ccccc1` [compound 474], above 9.00; with `COC(=O)N[C@H](C(=O)N1CCC[C@H]1c1ncc(-c2ccc(-c3ccc4cc(-c5cnc([C@@H]6CCCN6C(=O)[C@@H](NC(=O)OC)[C@@H](C)OC)[nH]5)ccc4n3)cc2F)[nH]1)C(C)C` [compound 475], above 9.00. The same measure for `COC(=O)N[C@H](C(=O)N1CCC[C@H]1c1ncc(-c2cnc(-c3ccc4cc(-c5cnc([C@@H]6CCCN6C(=O)[C@@H](NC(=O)OC)C(C)C)[nH]5)ccc4c3)nc2)[nH]1)C(C)C` [compound 476]: above 9.00; for `COC[C@H](NC(=O)OC)C(=O)N1CCC[C@H]1c1ncc(-c2ccc3cc(-c4ccc(-c5cnc([C@@H]6CCCN6C(=O)[C@H](NC(=O)OC)c6ccccc6)[nH]5)nn4)ccc3c2)[nH]1` [compound 477]: above 9.00; for `COC(=O)N[C@H](C(=O)N1CCC[C@H]1c1ncc(-c2ccc3cc(-c4ccc(-c5cnc([C@@H]6CCCN6C(=O)[C@H](NC(=O)OC)c6ccsc6)[nH]5)cc4)ccc3c2)[nH]1)[C@@H](C)O` [compound 478]: above 9.00. With `COC(=O)N[C@H](C(=O)N1CCC[C@H]1c1ncc(-c2ccc(-c3ccc4cc(-c5cnc([C@@H]6CCCN6C(=O)[C@@H](NC(=O)OC)[C@@H](C)OC)[nH]5)ccc4c3)nc2)[nH]1)C(C)C` [compound 479], the pEC50 was above 9.00.

In the case of `COC(=O)N[C@H](C(=O)N1CCC[C@H]1c1ncc(-c2ccc3cc(-c4ccc(-c5cnc([C@@H]6CCCN6C(=O)[C@H](NC(=O)OC)c6ccccc6)[nH]5)cn4)ccc3c2)[nH]1)[C@@H](C)OC` [compound 480], the pEC50 is above 9.00. For `COC(=O)N[C@H](C(=O)N1CCC[C@H]1c1ncc(-c2ccc(-c3ccc4cc(-c5cnc([C@@H]6CCCN6C(=O)[C@@H](NC(=O)OC)[C@@H](C)OC)[nH]5)ccc4c3)cc2)[nH]1)C(C)C` [compound 481], the pEC50 was above 9.00.

As for `COC(=O)N[C@H](C(=O)N1CCC[C@H]1c1ncc(-c2ccc(-c3ccc4cc(-c5cnc([C@@H]6CCCN6C(=O)[C@@H](NC(=O)OC)[C@@H](C)OC)[nH]5)ccc4n3)cc2)[nH]1)[C@@H](C)OC` [compound 482], the pEC50 was above 9.00. `COC(=O)N[C@H](C(=O)N1CCC[C@H]1c1ncc(-c2ccc(-c3cc4ccc(-c5cnc([C@@H]6CCCN6C(=O)[C@H](NC(=O)OC)c6ccccc6)[nH]5)cc4cn3)cc2)[nH]1)[C@@H](C)OC` [compound 483]: the pEC50 is above 9.00. On to `COC(=O)N[C@H](C(=O)N1CCC[C@H]1c1ncc(-c2ccc(-c3cc4ccc(-c5cnc([C@@H]6CCCN6C(=O)[C@H](NC(=O)OC)c6ccccc6)[nH]5)cc4cn3)cc2)[nH]1)[C@@H](C)O` [compound 484], for which the pEC50 was above 9.00. With `COC(=O)N[C@@H](C(=O)N1CCC[C@H]1c1ncc(-c2ccc(-c3ccc4cc(-c5cnc([C@@H]6CCCN6C(=O)[C@H](NC(=O)OC)c6ccsc6)[nH]5)ccc4n3)c(F)c2)[nH]1)c1ccccc1` [compound 485] the figure was above 9.00; with `C=CC[C@H](NC(=O)OC)C(=O)N1CCC[C@H]1c1ncc(-c2ccc3nc(-c4ccc(-c5cnc([C@@H]6CCCN6C(=O)[C@H](NC(=O)OC)c6ccccc6)[nH]5)cc4F)ccc3c2)[nH]1` [compound 486], above 9.00.
